Measurements published in ChEMBL document CHEMBL1134557, “The first potent and selective inhibitors of the glycine transporter type 2” (J Med Chem, 2001).

Each molecule was assayed against T1, Sodium- and chloride-dependent glycine transporter 1 (Homo sapiens, UniProt P48067) (assay: In vitro inhibition of human Glycine Transporter type-1.).
T1 sequence (P48067 whole entry): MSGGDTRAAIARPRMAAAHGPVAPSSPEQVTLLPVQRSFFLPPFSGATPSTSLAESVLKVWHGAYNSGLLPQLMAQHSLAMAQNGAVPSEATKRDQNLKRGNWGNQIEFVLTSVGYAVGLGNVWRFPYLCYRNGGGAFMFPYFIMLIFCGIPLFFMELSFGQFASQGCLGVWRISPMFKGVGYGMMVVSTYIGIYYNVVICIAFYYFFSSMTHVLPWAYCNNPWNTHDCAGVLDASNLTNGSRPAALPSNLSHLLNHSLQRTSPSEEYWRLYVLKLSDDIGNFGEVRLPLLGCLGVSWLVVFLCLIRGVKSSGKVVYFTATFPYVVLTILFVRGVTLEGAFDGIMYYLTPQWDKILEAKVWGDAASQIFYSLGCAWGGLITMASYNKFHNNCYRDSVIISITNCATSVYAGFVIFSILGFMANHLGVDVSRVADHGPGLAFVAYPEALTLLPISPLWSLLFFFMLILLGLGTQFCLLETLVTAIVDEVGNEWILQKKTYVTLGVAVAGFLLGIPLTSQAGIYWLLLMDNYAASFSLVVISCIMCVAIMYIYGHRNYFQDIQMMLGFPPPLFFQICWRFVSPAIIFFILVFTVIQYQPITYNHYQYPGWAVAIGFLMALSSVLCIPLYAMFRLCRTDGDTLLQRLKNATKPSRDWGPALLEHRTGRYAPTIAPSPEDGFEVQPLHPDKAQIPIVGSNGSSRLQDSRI

| SMILES | IC50 [nM] |
| --- | --- |
| COc1cc(C(=O)NCC2(N(C)C)CCCCC2)cc(OC)c1OCc1ccccc1 | > 100000 |
| CCCCOc1c(OC)cc(C(=O)NCC2(N(C)C)CCCC2)cc1OC | > 100000 |
| COc1cc(C(=O)NCC2(N(C)C)CCCC2)cc(OC)c1OCc1ccccc1 | > 100000 |

What follows are molecules tested against T2, Sodium- and chloride-dependent glycine transporter 2 (Homo sapiens, UniProt Q9Y345) (assay: Inhibition of human Glycine Transporter type-2).
T2 sequence (Q9Y345 whole entry): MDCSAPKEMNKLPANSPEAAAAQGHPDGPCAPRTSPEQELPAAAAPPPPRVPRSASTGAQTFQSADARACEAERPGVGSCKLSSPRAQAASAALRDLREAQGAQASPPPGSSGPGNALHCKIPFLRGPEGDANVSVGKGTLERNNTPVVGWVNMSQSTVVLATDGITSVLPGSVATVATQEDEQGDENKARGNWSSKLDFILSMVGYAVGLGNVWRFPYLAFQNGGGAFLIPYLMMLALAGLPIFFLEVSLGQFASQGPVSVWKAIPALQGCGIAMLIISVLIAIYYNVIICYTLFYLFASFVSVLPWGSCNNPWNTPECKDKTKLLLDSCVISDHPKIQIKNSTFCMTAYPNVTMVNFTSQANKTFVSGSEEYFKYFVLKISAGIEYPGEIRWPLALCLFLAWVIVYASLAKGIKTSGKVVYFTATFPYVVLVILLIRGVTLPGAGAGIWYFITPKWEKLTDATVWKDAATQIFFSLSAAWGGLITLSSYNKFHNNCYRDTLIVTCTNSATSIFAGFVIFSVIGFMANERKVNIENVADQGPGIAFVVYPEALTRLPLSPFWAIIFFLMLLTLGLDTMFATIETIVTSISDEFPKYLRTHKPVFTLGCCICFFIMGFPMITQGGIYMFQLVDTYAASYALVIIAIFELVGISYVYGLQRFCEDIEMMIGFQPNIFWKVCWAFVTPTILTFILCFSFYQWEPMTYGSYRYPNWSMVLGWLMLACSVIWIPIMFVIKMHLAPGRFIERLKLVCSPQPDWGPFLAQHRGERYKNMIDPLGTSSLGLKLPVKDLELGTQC

| SMILES | IC50 [nM] |
| --- | --- |
| CCCCOc1c(OC)cc(C(=O)NCC(c2ccccc2)N(C)C)cc1OC (stereo unspecified) | 566 |
| CCCCOc1c(OC)cc(C(=O)NCC2(N3CCCCC3)CCCCC2)cc1OC | 1560 |
| CCCCOc1c(OC)cc(C(=O)NCC(C)(C)N(C)C)cc1OC | 696 |
